pEC50, pKi: −log10 of the molar value.
Key:
Rattus norvegicus [1] = organism: Rattus norvegicus; test: animal or person; details: Sprague-Dawley, 1 h, read-out: INH
Rattus norvegicus [2] = test: Hypophagic effect in fasted male Sprague-Dawley rat assessed as inhibition of food intake at 10 mg/kg, po measured after 1 hr relative to control; format: functional; details: Rattus norvegicus, Sprague-Dawley, po
Rattus norvegicus [3] = organism: Rattus norvegicus; test: animal or person; details: Sprague-Dawley, po, 1 h, read-out: INH
[4] = target: T1, 5-hydroxytryptamine receptor 2A (Homo sapiens, UniProt P28223); test: Displacement of [125I]-DOI from 5-HT2A receptor (unknown origin) expressed in HEK293 cell membrane incubated for 1 hr by scintillation counter analysis; format: cell membranes
[5] = target: T2, 5-hydroxytryptamine receptor 2B (Homo sapiens, UniProt P41595); test: Displacement of [125I]-DOI from 5-HT2B receptor (unknown origin) expressed in HEK293 cell membrane incubated for 1 hr by scintillation counter analysis; format: cell membranes
[6] = target: T1, 5-hydroxytryptamine receptor 2A; test: Displacement of [125I]-DOI from 5-HT2A receptor (unknown origin) expressed in HEK293 cell membrane assessed as inhibition constant incubated for 1 hr by scintillation counter analysis; format: cell membranes
[7] = target: T3, 5-hydroxytryptamine receptor 2C (Homo sapiens, UniProt P28335)
T3 sequence (P28335 whole entry): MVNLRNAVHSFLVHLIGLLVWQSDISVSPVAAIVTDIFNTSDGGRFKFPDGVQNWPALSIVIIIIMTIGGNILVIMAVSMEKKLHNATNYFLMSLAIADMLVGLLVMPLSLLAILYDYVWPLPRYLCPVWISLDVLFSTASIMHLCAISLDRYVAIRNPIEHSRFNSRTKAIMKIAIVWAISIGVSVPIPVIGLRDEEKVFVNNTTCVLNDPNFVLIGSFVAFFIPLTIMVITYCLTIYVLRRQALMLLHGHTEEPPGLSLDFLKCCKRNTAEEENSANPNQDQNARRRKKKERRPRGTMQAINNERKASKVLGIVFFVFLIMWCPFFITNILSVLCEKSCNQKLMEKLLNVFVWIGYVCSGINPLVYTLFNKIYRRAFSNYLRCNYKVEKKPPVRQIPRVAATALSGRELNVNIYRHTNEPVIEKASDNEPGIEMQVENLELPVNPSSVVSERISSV

[8] = target: T2, 5-hydroxytryptamine receptor 2B; test: Displacement of [125I]-DOI from 5-HT2B receptor (unknown origin) expressed in HEK293 cell membrane assessed as inhibition constant incubated for 1 hr by scintillation counter analysis; format: cell membranes
[9] = target: T3, 5-hydroxytryptamine receptor 2C; remark: listed apart in the source
[10] = Drug concentration in plasma of fasted male Sprague-Dawley rat assessed as inhibition of food intake at 10 mg/kg, po measured after 1 hr relative to control; format: organism-based
Rattus norvegicus [11] = test: Hypophagic effect in fasted male Sprague-Dawley rat assessed as effective dose administered orally measured after 1 hr relative to control; format: functional; details: route po
Rattus norvegicus [12] = test: Hypophagic effect in fasted male Sprague-Dawley rat assessed as inhibition of food intake at 5 mg/kg, po measured after 1 hr relative to control; format: functional
[13] = Drug concentration in brain of fasted male Sprague-Dawley rat assessed as inhibition of food intake at 10 mg/kg, po measured after 1 hr relative to control; format: organism-based; details: read-out: Ct

T2 sequence (P41595 whole entry): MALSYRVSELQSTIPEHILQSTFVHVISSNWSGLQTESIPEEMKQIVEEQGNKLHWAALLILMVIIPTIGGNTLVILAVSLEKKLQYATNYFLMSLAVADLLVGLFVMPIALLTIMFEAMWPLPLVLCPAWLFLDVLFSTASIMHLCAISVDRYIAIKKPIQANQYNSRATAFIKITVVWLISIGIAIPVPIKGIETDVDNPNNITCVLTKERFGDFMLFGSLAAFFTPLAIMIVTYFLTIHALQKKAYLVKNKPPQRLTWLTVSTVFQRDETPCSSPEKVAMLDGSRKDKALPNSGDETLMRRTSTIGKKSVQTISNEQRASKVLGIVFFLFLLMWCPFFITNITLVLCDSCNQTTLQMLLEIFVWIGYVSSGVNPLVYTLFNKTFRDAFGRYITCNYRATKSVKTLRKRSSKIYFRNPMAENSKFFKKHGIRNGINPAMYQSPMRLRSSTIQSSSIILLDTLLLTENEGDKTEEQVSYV
T1 sequence (P28223 whole entry): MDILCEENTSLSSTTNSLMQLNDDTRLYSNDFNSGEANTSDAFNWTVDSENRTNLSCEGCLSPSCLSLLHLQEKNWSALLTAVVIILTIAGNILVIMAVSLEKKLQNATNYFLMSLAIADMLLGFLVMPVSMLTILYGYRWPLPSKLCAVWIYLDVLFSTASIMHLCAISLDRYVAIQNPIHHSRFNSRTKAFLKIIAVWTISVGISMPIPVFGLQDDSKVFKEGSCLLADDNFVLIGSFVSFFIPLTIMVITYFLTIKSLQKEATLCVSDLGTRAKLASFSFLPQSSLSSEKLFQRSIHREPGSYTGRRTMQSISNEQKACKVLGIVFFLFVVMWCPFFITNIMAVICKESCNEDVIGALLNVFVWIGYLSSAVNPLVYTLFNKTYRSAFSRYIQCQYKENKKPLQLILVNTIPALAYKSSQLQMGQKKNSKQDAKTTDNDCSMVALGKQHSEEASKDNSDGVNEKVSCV

Row | pEC50 [4] | pEC50 [5] | pKi [6] | pEC50 [7] | pKi [8] | pKi [9] | concentration at 1 h [10] | concentration at 1 h [13] | Structure (SMILES) | inhibition in vivo at 10 mg/kg (Rattus norvegicus [1]) | inhibition in vivo at 10 mg/kg (Rattus norvegicus [2]) | inhibition in vivo at 20 mg/kg (Rattus norvegicus [3]) | ED50 (Rattus norvegicus [11]) | inhibition in vivo at 5 mg/kg (Rattus norvegicus [12])
1 |  |  |  |  |  |  |  |  | COCCNC(=O)c1ccc2c3c1CCN3CCNC2 | 7% | 9% | 25% |  | 
2 | < 4.30 | < 4.30 | < 4.30 | 6.71 | < 4.30 | 6.63 |  |  | CCOCCNC(=O)c1ccc2c3c1CCCN3CCNC2 |  |  |  |  | 
3 |  |  |  |  |  |  | 866 ng/mL | 454 ng/g | CCC1CN2CCNCc3ccc(C(=O)NCC(F)F)c1c32 (single isomer, unassigned; (+)) |  |  |  | > 5 mg/kg | 27%
4 | < 4.30 | < 4.30 | 6.08 | 6.09 | 5.11 | 6.46 |  |  | COC(C)CNC(=O)c1ccc2c3c1CCN3CCNC2 (configuration not stated) |  |  |  |  | 
5 | < 4.30 | < 4.30 | 5.58 | 7.68 | 5.78 | 7.74 |  |  | O=C(NCCOc1ccccc1)c1ccc2c3c1CCN3CCNC2 |  |  |  |  | 
6 | < 4.30 | < 4.30 | < 4.52 | 5.41 | 5.06 | 5.94 |  |  | CC(C)NC(=O)c1ccc2c3c1CCN3CCNC2 |  |  |  |  | 
7 |  |  |  |  |  |  |  |  | CCCNC(=O)c1ccc2c3c1C(CC(F)(F)F)CN3CCNC2 (single isomer, unassigned; (+)) |  | 53% |  |  | 
